From patent publication US6646006B2, “Enhancement of vascular function by modulation of endogenous nitric oxide production or activity” (The Board of Trustees of the Leland Stanford Junior …, priority 1993, dated 2003)

Tests used:
[1] = tested on: hypercholesterolemic rabbits; assay: Regression of pre-existing atherosclerosis in hypercholesterolemic rabbits; type: in vivo, rabbit; conditions: for Lesion surface area of thoracic aortae: all arginine treated animals weeks 14-23 vs vehicle
Description: This is clinically important if arginine is to be useful in the treatment of pre-existing atherosclerosis in humans. Accordingly, New Zealand white rabbits (n=85) received normal chow or 0.5% cholesterol chow for 10 weeks. Subsequently, half of the hypercholesterolemic rabbits were given 2.25% (W/V) L-arginine in their drinking water. Thoracic aortae were harvested at weeks 10, 14, 18, or 23. Rings of aorta were used to assess NO-dependent vasodilation to acetylcholine (ACh). Maximal relaxation to ACh in the hypercholesterolemic rabbits receiving vehicle (CHOL) became progressively attenuated from 53.4% (at week 10) to 17.4% (by week 23). […] By contrast, hypercholesterolemic animals receiving arginine (ARG) manifested improved endothelium-dependent relaxation associated with a reduction of plaque area at 14 and 18 weeks.

[2] = tested on: hypercholesterolemic rabbits; assay: Local intraluminal arginine after iliac artery angioplasty in cholesterol-fed rabbits; type: in vivo, rabbit; conditions: local infusion 6 mM, four weeks
Description: FIG. 8 is a histogram showing the effect of local-intraluminal administration of arginine on restenosis. Hypercholesterolemic rabbits had balloon angioplasty of the iliac artery. Immediately thereafter some animals received an infusion of arginine directly into the vessel by means of a catheter designed to apply high local concentrations of arginine to the vessel. Two to four weeks later, vessels were removed from the animals, and examined microscopically. Thickening of the vessel wall (internal thickening or “restenosis”) was reduced in the animals treated with intraluminal infusion of arginine (ARG) in comparison to those treated with vehicle. (See Ex. 12)
To determine if intraluminal application of arginine to the vessel wall at the time of balloon angioplasty could inhibit lesion formation, the following study was performed. Rabbits (n=7) were fed a 1% cholesterol diet. After one week, angioplasty of the iliac arteries was performed. After angioplasty of one iliac artery, a local infusion catheter was used to expose the injured area to a high concentration of arginine (6 mM). The other iliac artery was subjected to balloon angioplasty, but not treated with a local infusion. After four weeks, the vessels were harvested, and segments of the arteries processed for histomorphometry.

[3] = parameters: species or system human; conditions: in vivo, po
Experimental: (§1) The control subject population in this study included 12 normal volunteers, (10 males and 2 females), with an average age of 37±2 yrs. Normalcy was determined by a careful history, physical examination, and laboratory analysis to exclude individuals with hematologic, renal, or hepatic dysfunction or clinically evident atherosclerosis. There were 20 patients (10 males and 10 females) with hypercholesterolemia as defined by a total plasma cholesterol greater than 240 mg/dl and a LDL cholesterol level greater than 160 mg/dl. […] None of the subjects were taking diuretics, vasoactive medications, antiplatelet or hypolipidemic medications. This study was approved by the Stanford University Administrative Panel on Human Subjects in Medical Research and each subject gave written informed consent before entry into the study. Blood was drawn from each subject in the postabsorptive state.
Results. Oral administration of L-arginine ([…] for 2 weeks) to hypercholesterolemic humans increased plasma arginine values by 60% (from […]; n=7), whereas L-arginine values in the placebo-treated (n=3) and normocholesterolemic (n=6) groups remained unchanged.

human monocytes = assay: Ex vivo binding of human monocytes to bEnd3 endothelial cells after oral L-arginine; type: in vivo
Experimental: as §1
We isolated human monocytes from citrated venous blood. The blood was centrifuged and the buffy coat removed and resuspended with HBSS. The suspension was then carefully layered onto a cushion of 1.068-d Histopaque, and centrifuged. After centrifugation, the monocytes were aspirated.
We used the transformed endothelial cell (EC) line, bEnd3 to examine monocyte-endothelial binding ex vivo. The bEnd3 cells express endothelial adhesion molecules and bind monocytes in a cytokine-inducible fashion with kinetics similar to those observed with human umbilical vein endothelium. Monocytes were added to the wells containing the endothelial monolayers to reach a final cell number of 3×10^6/ml. In some studies, monocytes were exposed in vitro for 30 minutes to sodium nitroprusside (an NO donor) prior to the binding assay.
The six-well plates were transferred to a rocking platform and rocked for 30 minutes at room temperature. After 30 minutes, the cell suspension was aspirated from each well and wells were then rinsed with binding buffer to remove nonadherent monocytes. Videomicroscopic counting of adherent cells was performed using a computer aided image analysis system.
To confirm this effect of L-arginine treatment and to control for any experimental bias, a double-blinded, placebo-controlled, randomized study was performed. Ten hypercholesterolemic subjects were randomized (1:2) to placebo or L-arginine treatment; 6 normocholesterolemic individuals were studied in parallel to control for variation over time in the binding assay. At baseline, the adhesion of monocytes from both hypercholesterolemic groups was increased in comparison to the normocholesterolemic individuals (p<0.001). After 2 weeks of L-arginine administration, there was an absolute reduction of 53% in monocyte binding (n=7, p<0.005, baseline vs 2 weeks) (FIG. 11). By contrast, there was no significant change in the adhesiveness of monocytes isolated from hypercholesterolemic individuals treated with placebo.

platelets = assay: Platelet aggregometry in hypercholesterolemic humans after oral L-arginine; type: in vivo, human
Description: FIG. 13 is a set of histograms showing aggregation of platelets obtained in hypercholesterolemic humans (hc), and individuals with normal cholesterol levels (nc). Platelet aggregation ex vivo in response to adenosine diphosphate (ADP) is increased in hc individuals in comparison to normal individuals. […] (See Ex. 16)
In this study we tested the hypothesis that chronic L-arginine supplementation would inhibit platelet reactivity in hypercholesterolemic humans. Venous blood was collected from normal (NC; n=11) and hypercholesterolemic (HC; n=22) volunteers for isolation of platelet-rich plasma and aggregometry. […]

[4] = two weeks after discontinuation of L-arginine

N=C(N)NCCC[C@H](N)C(=O)O [L-arginine]
plaque area of total surface of thoracic aorta ([1]; 23 weeks, 3 of 7 ARG animals with persistent improvement): 5.4%
generation of vascular NO ([1]; ARG animals): increased generation
generation of vascular superoxide anion ([1]; ARG animals): reduced generation
plaque area ([1]; ARG animals at 14 and 18 weeks): reduction
endothelium-dependent relaxation ([1]; ARG animals, 14 and 18 weeks): improved
Lesion surface area of thoracic aortae [1]: significantly reduced
Lesion surface area of thoracic aortae ([1]; listed as arginine): reduced
thickening of the vessel wall in arginine-treated vessels [2]: significantly reduced
increase of plasma arginine values ([3]; human, 2 weeks): 60%
plasma arginine value after treatment ([3]; human, 2 weeks): 128 ± 12 mM
effect on biochemical or hematologic parameters [3]: no effect
tolerability [3]: well tolerated
adhesiveness of monocytes compared with normal subjects (human monocytes; after 2 weeks of arginine treatment): no different from those of the normal subjects
absolute reduction in monocyte binding (human monocytes; double-blinded placebo-controlled, baseline vs 2 weeks, n=7): 53%
decrease in monocyte adhesiveness (human monocytes; open-label, 3 individuals, 2 weeks): 38%
increase in binding vs that after 2 weeks of L-arginine therapy (human monocytes; [4]): 30±9%
increase in bound cells/hpf vs normocholesterolemic individuals (human monocytes; [4]): 34±9%
platelet aggregation in response to ADP (platelets; 2 weeks of oral L-arginine): attenuated
aggregability of HC platelets (platelets; two weeks, collagen 5 mg/ml): reduced
